Reference: patent publication US20190135793A1, “HETEROCYCLIC INHIBITORS OF KDM5 FOR THE TREATMENT OF DISEASE” (Board of Regents, The University of Texas System, priority 2017, published 2019)
Like-named read-outs stand apart in the source and are kept apart here.

Experiments:
KDM5B = target: T1, KDM5B (Homo sapiens, UniProt Q9UGL1); test: biochemical
T1 construct: Full length of KDM5B and KDM4C protein were purchased from Active Motif; purchased Active Motif 31832
Description: (§1) KDM4C and KDM5B AlphaScreen Assay Material and Method
(§2) Compounds disclosed herein were (and can be) screened using the following assay.
Peptides used in all experiments were purchased from Anaspe. […] Final concentration of KDM5B and KDM4C used in the assay were 0.5 nM and 0.2 nM. Final concentration of peptides for 5B and 4C used in the assay were 3 nM.
(§3) 4 μL of KDM5B or KDM4C protein were added to 384-well OptiPlate by using multiflow, followed by 4 μl of either buffer or compound. Plates were sealed, spun down and incubated at RT for 15 min. 4 μl of biotinylated peptide was added to the plate, the plate was incubated at room temperature for 25 minutes (KDM5B) and 30 minutes (KDM4C) after sealed and spun down. Streptavidin donor beads and acceptor beads were diluted and mixed in the detection buffer with 7.5 mM EDTA, followed by adding 8 μl of acceptor and donor beads mix to the plate, before the plate was sealed and incubated at room temperature for 3 h or overnight at dark. The plate was read on Envision plate reader (PerkinElmer) using Alphascreen protocol. IC50s were calculated in GraphPad Prism 6.

KDM4C = target: T2, KDM4C (Homo sapiens, UniProt Q9H3R0); test: KDM4C AlphaScreen assay; type: biochemical; settings: AlphaScreen; full length KDM4C 0.2 nM; biotinylated H3K9Me3 peptide 3 nM; 30 minutes at room temperature
T2 construct: Full length of KDM5B and KDM4C protein were purchased from Active Motif; purchased Active Motif 31858
T2 sequence (Q9H3R0 1-1056): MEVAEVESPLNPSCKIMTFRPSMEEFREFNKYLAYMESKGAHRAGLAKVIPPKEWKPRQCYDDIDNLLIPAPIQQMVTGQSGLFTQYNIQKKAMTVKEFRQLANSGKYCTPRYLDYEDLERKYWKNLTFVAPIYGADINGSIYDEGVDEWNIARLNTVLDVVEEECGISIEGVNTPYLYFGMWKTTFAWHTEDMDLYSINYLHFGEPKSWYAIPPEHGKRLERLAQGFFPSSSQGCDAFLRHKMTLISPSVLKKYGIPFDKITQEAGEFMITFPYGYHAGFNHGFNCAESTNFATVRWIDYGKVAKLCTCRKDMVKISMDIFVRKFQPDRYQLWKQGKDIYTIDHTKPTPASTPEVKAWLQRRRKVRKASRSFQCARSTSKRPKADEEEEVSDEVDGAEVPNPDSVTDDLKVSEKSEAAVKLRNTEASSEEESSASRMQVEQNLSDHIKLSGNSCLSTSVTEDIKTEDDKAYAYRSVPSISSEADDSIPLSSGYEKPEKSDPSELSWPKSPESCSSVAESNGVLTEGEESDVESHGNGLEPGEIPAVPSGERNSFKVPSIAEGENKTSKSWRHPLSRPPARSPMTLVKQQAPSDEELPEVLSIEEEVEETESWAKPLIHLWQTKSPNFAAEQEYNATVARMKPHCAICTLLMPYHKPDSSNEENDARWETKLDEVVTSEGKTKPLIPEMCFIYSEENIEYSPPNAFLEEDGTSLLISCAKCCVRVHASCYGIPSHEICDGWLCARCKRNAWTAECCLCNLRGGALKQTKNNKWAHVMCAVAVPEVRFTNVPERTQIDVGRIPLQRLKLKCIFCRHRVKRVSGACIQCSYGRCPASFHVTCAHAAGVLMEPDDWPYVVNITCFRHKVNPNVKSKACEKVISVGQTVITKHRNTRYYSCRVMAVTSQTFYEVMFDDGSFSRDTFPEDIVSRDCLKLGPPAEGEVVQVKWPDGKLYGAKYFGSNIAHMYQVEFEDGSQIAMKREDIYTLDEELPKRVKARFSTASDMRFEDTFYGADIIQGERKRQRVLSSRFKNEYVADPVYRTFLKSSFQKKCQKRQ
Description: as §1, §2
Peptides used in all experiments were purchased from Anaspe. Full length of KDM5B and KDM4C protein were purchased from Active Motif: KDM5B (cat#31832) and KDM4C (Cat #31858). Final concentration of KDM5B and KDM4C used in the assay were 0.5 nM and 0.2 nM. Final concentration of peptides for 5B and 4C used in the assay were 3 nM.
as §3, with “AlphaScreen assays was conducted as following protocol: buffer used to make compound plate or DMSO is composed of 50 mM HEPES pH 7.4, 0.003% Tween-20; buffer used to dilute enzyme is composed of 50 mM HEPES pH 7.4, 0.003% Tween-20, 0.01% BSA, 500 μM TCEP; and buffer used to dilute the substrate is composed of 50 mM HEPES pH 7.4, 0.003% Tween-20, (NH4)2Fe(SO4)2 15 μM, alpha-ketoglutaric acid 4 μM and L-ascorbic acid 100 μM. 4 μL” for “4 μL”

[1] = AlphaScreen, full length KDM5B 0.5 nM, biotinylated H3K4Me3 peptide 3 nM, 25 minutes at room temperature, read-out: KDM5B (IC50)

T1 sequence (Q9UGL1 whole entry): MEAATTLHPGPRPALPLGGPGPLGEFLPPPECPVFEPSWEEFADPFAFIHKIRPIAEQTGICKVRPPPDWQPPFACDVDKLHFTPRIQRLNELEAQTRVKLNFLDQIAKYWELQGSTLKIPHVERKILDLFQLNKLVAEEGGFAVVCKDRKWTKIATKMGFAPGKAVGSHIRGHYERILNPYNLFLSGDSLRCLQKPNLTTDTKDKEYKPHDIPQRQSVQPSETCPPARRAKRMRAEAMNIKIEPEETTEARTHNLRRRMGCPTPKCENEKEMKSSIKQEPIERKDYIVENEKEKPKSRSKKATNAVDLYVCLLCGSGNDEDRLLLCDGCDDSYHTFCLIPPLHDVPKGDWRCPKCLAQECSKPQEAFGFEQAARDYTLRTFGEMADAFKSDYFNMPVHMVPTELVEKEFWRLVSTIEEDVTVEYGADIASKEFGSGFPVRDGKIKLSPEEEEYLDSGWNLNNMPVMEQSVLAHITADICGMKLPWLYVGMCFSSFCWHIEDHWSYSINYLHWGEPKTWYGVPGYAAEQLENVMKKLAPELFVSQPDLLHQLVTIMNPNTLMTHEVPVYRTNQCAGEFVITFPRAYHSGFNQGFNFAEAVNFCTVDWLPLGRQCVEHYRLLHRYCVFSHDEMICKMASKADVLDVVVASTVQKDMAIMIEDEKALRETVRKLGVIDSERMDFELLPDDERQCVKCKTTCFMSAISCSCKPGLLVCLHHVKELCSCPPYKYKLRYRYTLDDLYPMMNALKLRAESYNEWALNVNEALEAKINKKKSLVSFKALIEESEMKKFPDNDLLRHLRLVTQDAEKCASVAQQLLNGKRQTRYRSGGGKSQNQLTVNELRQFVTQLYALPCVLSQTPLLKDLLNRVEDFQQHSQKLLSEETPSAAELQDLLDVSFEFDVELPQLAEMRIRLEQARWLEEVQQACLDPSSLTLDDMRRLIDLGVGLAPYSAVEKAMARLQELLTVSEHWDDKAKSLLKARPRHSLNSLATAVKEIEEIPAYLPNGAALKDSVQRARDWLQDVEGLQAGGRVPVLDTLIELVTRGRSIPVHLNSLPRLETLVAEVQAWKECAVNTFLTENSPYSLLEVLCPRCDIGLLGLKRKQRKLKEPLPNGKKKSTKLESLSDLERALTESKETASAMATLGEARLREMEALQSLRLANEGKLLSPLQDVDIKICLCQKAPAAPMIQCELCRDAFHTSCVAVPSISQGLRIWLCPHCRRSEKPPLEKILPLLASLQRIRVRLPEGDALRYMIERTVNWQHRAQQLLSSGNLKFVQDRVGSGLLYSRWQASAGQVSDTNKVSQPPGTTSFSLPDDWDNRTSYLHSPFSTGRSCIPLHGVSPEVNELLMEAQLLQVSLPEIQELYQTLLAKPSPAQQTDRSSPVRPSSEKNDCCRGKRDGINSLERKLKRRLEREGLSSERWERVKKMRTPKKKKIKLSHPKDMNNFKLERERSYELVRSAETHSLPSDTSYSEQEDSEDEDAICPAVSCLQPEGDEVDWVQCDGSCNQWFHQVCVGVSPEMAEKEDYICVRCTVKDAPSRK

Row | SMILES | IC50 (KDM5B) [nM] | IC50 (KDM4C) [nM] | IC50 (KDM5B; [1]) [nM]
1 | Cc1nccn1-c1nc(O)c(C(C)C)c(-c2cnn(C(C)C)c2)n1 [Example 4, 5-isopropyl-6-(1-isopropyl-1H-pyrazol-4-yl)-2-(2-methyl-1H-imidazol-1-yl)pyrimidin-4-ol] | 125 | 4480 | 
2 | CC(C)c1c(O)nc(-n2ccnc2)nc1-c1ccc(CNS(C)(=O)=O)cc1 [Example 48, N-({4-[6-Hydroxy-2-(1H-imidazol-1-yl)-5-(propan-2-yl)pyrimidin-4-yl]phenyl}-methyl)methanesulfonamide] |  | 1260 | 13
3 | Cc1nc(-n2cnc(CO)c2)nc(O)c1C(C)C [Example 24b, 2-[4-(hydroxymethyl)imidazol-1-yl]-5-isopropyl-6-methyl-pyrimidin-4-ol] | 1260 | 16800 | 
4 | Cc1nc(-n2ccnc2)nc(O)c1C(C)C [Example 22, 2-(1H-imidazol-1-yl)-5-isopropyl-6-methylpyrimidin-4-ol] | 16 | 470 | 
5 | CC(C)c1c(O)nc(-n2ccnc2)nc1-c1ccc(C(=O)O)nc1 [Example 121, 5-[6-Hydroxy-2-(1H-imidazol-1-yl)-5-(propan-2-yl)pyrimidin-4-yl]pyridine-2-carboxylic acid] | 18 | 837 | 
6 | CC(C)c1c(O)nc(-n2ccnc2)nc1-c1cnn(C)c1 [Example 55, 2-(1H-Imidazol-1-yl)-6-(1-methyl-1H-pyrazol-4-yl)-5-(propan-2-yl)pyrimidin-4-ol] | 15 | 1340 | 
7 | CC(C)c1c(O)nc(-n2ccnc2)nc1-c1cnn(CC(C)(C)O)c1 [Example 81, 6-[1-(2-Hydroxy-2-methyl-propyl)-1H-pyrazol-4-yl]-2-(1H-imidazol-1-yl)-5-(propan-2-yl)pyrimidin-4-ol] | 60 | 4040 | 
8 | CC(C)c1c(O)nc(-n2ccnc2)nc1-c1cnn(CC(=O)NCCN2CCOCC2)c1 [Example 100, 2-{4-[6-Hydroxy-2-(1H-imidazol-1-yl)-5-(propan-2-yl)pyrimidin-4-yl]-1H-pyrazol-1-yl}-N-[2-(morpholin-4-yl)ethyl]-acetamide] | 12 | 1260 | 
9 | CC(C)c1c(O)nc(-n2ccnc2)nc1-c1cnn(CC(=O)NCCS(C)(=O)=O)c1 [Example 107, 2-{4-[6-Hydroxy-2-(1H-imidazol-1-yl)-5-(propan-2-yl)pyrimidin-4-yl]-1H-pyrazol-1-yl}-N-(2-methane-sulfonylethyl)acetamide] |  | 1220 | 19
10 | CC(C)c1c(O)nc(-n2ccnc2)nc1-c1ccccc1 [Example 83, 2-(1H-Imidazol-1-yl)-6-phenyl-5-(propan-2-yl)-pyrimidin-4-ol] | 89 | 2690 | 
11 | CC(C)c1c(O)nc(-n2ccnc2)nc1-c1cnn(-c2ccccc2)c1 [Example 71, 2-(1H-Imidazol-1-yl)-6-(1-phenyl-1H-pyrazol-4-yl)-5-(propan-2-yl)pyrimidin-4-ol] | 24 | 1560 | 
12 | CC(C)c1c(O)nc(-n2ccnc2)nc1-c1cnn(CC(=O)NCCN(C)c2ccccc2)c1 [Example 102, 2-{4-[6-Hydroxy-2-(1H-imidazol-1-yl)-5-(propan-2-yl)pyrimidin-4-yl]-1H-pyrazol-1-yl}-N-{2-[methyl-(phenyl)amino]ethyl}-acetamide] |  | 1400 | 14
13 | CC(C)c1c(O)nc(-n2ccnc2)nc1-c1cnn(CC(=O)NCCN)c1 [Example 94, N-(2-Aminoethyl)-2-{4-[6-hydroxy-2-(1H-imidazol-1-yl)-5-(propan-2-yl)pyrimidin-4-yl]-1H-pyrazol-1-yl}-acetamide] |  | 340 | 6
14 | Cc1nc(-c2cn[nH]c2)nc(O)c1C(C)C [Example 26, 5-Isopropyl-6-methyl-2-(1H-pyrazol-4-yl)pyrimidin-4-ol] | 1070 | 15800 | 
15 | Cc1nc(-n2cncc2CO)nc(O)c1C(C)C [Example 24a, 2-[5-(hydroxymethyl)imidazol-1-yl]-5-isopropyl-6-methyl-pyrimidin-4-ol] | 45 | 499 | 
16 | CC(C)c1c(O)nc(-n2ccnc2)nc1-c1cnn(C2CC2)c1 [Example 47, 6-(1-Cyclopropyl-1H-pyrazol-4-yl)-2-(1H-imidazol-1-yl)-5-(propan-2-yl)pyrimidin-4-ol] | 11 | 771 | 
17 | Cc1nc(-n2ccnc2N)nc(O)c1C(C)C [Example 23, 2-(2-aminoimidazol-1-yl)-5-isopropyl-6-methyl-pyrimidin-4-ol] | 24 | 775 | 
18 | CC(C)CCn1cc(-c2nc(-n3ccnc3)nc(O)c2C(C)C)cn1 [Example 73, 2-(1H-Imidazol-1-yl)-6-[1-(3-methylbutyl)-1H-pyrazol-4-yl]-5-(propan-2-yl)pyrimidin-4-ol] | 25 | 1350 | 
19 | CC(C)c1c(O)nc(-n2ccnc2)nc1-c1cnn(CC(=O)NCCN2CCCC2)c1 [Example 6, 2-(4-(6-Hydroxy-2-(1H-imidazol-1-yl)-5-isopropylpyrimidin-4-yl)-1H-pyrazol-1-yl)-N-(2-(pyrrolidin-1-yl)ethyl)acetamide] | 4 | 214 | 
20 | CC(C)Cn1cc(-c2nc(-n3ccnc3)nc(O)c2C(C)C)cn1 [Example 65, 2-(1H-Imidazol-1-yl)-6-[1-(2-methylpropyl)-1H-pyrazol-4-yl]-5-(propan-2-yl)pyrimidin-4-ol] | 19 | 937 | 
21 | CCc1c(C)nc(-c2cncs2)nc1O [Example 156, 5-Ethyl-6-methyl-2-(1,3-thiazol-5-yl)-pyrimidin-4-ol] | 660 | 8060 | 
22 | Cc1nc(-c2cncs2)nc(O)c1C(C)C [Example 155, 6-Methyl-5-(propan-2-yl)-2-(1,3-thiazol-5-yl)-pyrimidin-4-ol] | 65 | 1650 | 
23 | CC(C)c1c(O)nc(-n2ccnc2)nc1OCC(=O)O [Example 15, 2-{[6-hydroxy-2-(1H-imidazol-1-yl)-5-(propan-2-yl)pyrimidin-4-yl]oxy}acetic acid] | 651 | 10300 | 
24 | CC(=O)N1CCN(CCOc2nc(-n3ccnc3)nc(O)c2C(C)C)CC1 [Example 125, 1-[4-(2-{[6-Hydroxy-2-(1H-imidazol-1-yl)-5-(propan-2-yl)pyrimidin-4-yl]oxy}ethyl)-piperazin-1-yl]ethan-1-one] |  | 2320 | 14
